Data on seven compounds can be found in PMC8558867, “Development of BromoTag: A “Bump-and-Hole”–PROTAC System to Induce Potent, Rapid, and Selective Degradation of Tagged Target Proteins” (Journal of Medicinal Chemistry, 2021).

Read-outs that look alike come from different tables or passages of the source.

The test system of experiment [1] is untagged Brd2, Brd3, Brd4. Nature of the experiment: Off-target degradation of endogenous BET proteins (western blot) in heterozygous BromoTag-Brd2 HEK293 cells. Type of experiment: cell-based, human. The text has this:
To establish the BromoTag platform and support the degrader structure–activity relationships (SARs) to identify the best compound, we sought a practical and simple system that enables us to best optimize not only the degradation efficiency but also the selectivity profile of our degraders. To this end, the endogenous BET family protein Brd2 was chosen as a model target due to the availability of a well-established antibody for Brd2 detection, and the expression of a single protein isoform detected as a single band in the western blot.[24] Because Brd2 contains endogenous bromodomains and is degraded by 1 and other BET PROTACs, we reasoned that a heterozygous knock-in cell line allows us to monitor simultaneously both on-target degradation (BromoTagged-Brd2) and off-target degradation (untagged Brd2) using the same antibody. Together with the potential off-target degradation of the other BET proteins Brd3 and Brd4, this system thus enables us to best monitor protein degradation selectivity. We therefore decided to add the BromoTag at the N-terminus of the endogenous Brd2 gene locus using CRISPR knock-in methodologies, thereby yielding a chimeric protein bearing three bromodomains (the exogenous BromoTag, in addition to the endogenous Brd2^BD1 and Brd2^BD2). Hereafter, we refer to on-target activity as the degradation of BromoTag-Brd2 and off-target activity as any degradation of either untagged Brd2 or endogenous Brd3 or Brd4.
All dose–response degradation assays were performed on the genotype-verified heterozygous BromoTag-Brd2 HEK293 cell line. Heterozygous BromoTag-Brd2 HEK293 cells were plated at a density of 5 × 10^5 cells per well of a six-well healthy plate a day before initiation of the titration experiment. PROTAC compounds were dissolved in DMSO at a concentration of 10 mM; from these stock concentrations, PROTAC compounds were diluted to appropriate concentrations using DMSO in the range of 10 μM to 1 nM. The compounds were then added to 2 mL of DMEM (Invitrogen, Carlsbad, CA, USA) supplemented with 10% (v/v) FBS (Thermo Fisher, Waltham, MA, USA) and 1% (v/v) penicillin/streptomycin (pen/strep) (#15140122, Thermo Fisher, Waltham, MA, USA) and added to the cells while initiating the experiment. Control compounds such as MZ1 and cis-MZ1 were similarly dissolved in DMSO to an appropriate concentration. All titration experiments were performed for a total of 6 h prior to being harvested and were kept at 37 °C, 5% CO2, and 95% humidity once treatment was applied until right before harvesting. The cells were washed twice with PBS before being harvested.
All cells were harvested on ice with RIPA lysis and extraction buffer (Thermo Fisher Scientific, 89901) supplemented with protease inhibitor cocktail (Merck, 11697498001) and Benzonase Nuclease (Sigma, E1014) before being stored at −20 °C prior to use. Total protein quantity was determined using the BCA protein assay (#23225, Pierce, Rockford, Illinois). The protein concentration was determined using the BCA assay (Thermo Fisher Scientific, 23225). The samples were then prepared and loaded onto NuPAGE 4–12% bis–tris Midi gels (Thermo Fisher Scientific, WG1403A), followed by the transfer of proteins onto nitrocellulose membranes (EMD Millipore). The membranes were blocked for 1 h prior to incubation with the primary antibodies using 5% Milk TBST. The membranes were probed for Brd2 (Abcam, Ab139690, 1:1000), Brd3 (Abcam, Ab50818, 1:4000), Brd4 (Abcam, Ab128874, 1:1000), or our polyclonal Brd4^BD2 L387A antibody. Following overnight incubation with the primary antibodies at 4 °C, the membranes were incubated with secondary antibodies (anti-rabbit, Abcam AB216773, 1:5000 or anti-mouse, Abcam AB216774, 1:5000) and hFABTM rhodamine anti-tubulin antibody (Biorad, 12004165, 1:10,000) for 1 h and then imaged with a Bio-Rad imager (LI-COR Biosciences). All western blots were analyzed for band intensities using Image Lab from Bio-Rad (LI-COR, Biosciences). […]
A general note: A western blot detects proteins with antibodies after separation by electrophoresis.

The test system of a further experiment is BromoTag-Brd2. Nature of the experiment: Dose–response degradation assay (western blot, 6 h) in heterozygous BromoTag-Brd2 HEK293 cells. Type of experiment: cell-based, human. To be noted: for pDmax (%) (Ab: Brd4BD2 L387A) / pDmax (%) (Ab:Brd2): supplementary CSV; for pDC50 (Ab: Brd2) / pDC50 (Ab: Brd4^BD2 L387A) / Dmax (%) (Ab: Brd2) / Dmax (%) (Ab: Brd4^BD2 L387A): BromoTagged-Brd2, 6 h; for pDC50 (Ab: Brd2) / pDC50 (Ab: Brd4^BD2 L387A): mean ±S.E of three independent experiments; for hook effect: higher concentrations of 1–10 μM; for hook effect / DC50 / Dmax of BromoTag-Brd2 degradation: 6 h; for DC50: read-out: DC50 of BromoTag-Brd2 degradation.

[2] abbreviates: 1 nM to 10 μM, 6 h, diastereomeric mixtures.
Setting [3] is: diastereomeric mixtures, range over the two antibodies.

Consider `Cc1ncsc1-c1ccc(CNC(=O)[C@@H]2C[C@@H](O)CN2C(=O)[C@@H](NC(=O)COCCOCCOCCOC(=O)[C@H](C)[C@@H]2N=C(c3ccc(Cl)cc3)c3c(sc(C)c3C)-n3c(C)nnc32)C(C)(C)C)cc1` (relative stereo) [ME-OMZ1 (22), (S)-13-((2S,4R)-4-Hydroxy-2-((4-(4-methylthiazol-5-yl)benzyl)carbamoyl)pyrrolidine-1-carbonyl)-14,14-dimethyl-11-oxo-3,6,9-trioxa-12-azapentadecyl (R*)-2-((S*)-4-(4-chlorophenyl)-2,3,9-trimethyl-6H-thieno[3,2-f][1,2,4]triazolo[4,3-a][1,4]diazepin-6-yl)propanoate], for which, in experiment [1] (setting [2]), the “off-target degradation of untagged Brd2 or the other endogenous BET proteins” value (“off-target degradation” below) is recorded as “induced undesired off-target degradation”. Besides, in the experiment on BromoTag-Brd2, the “pDmax (%) (Ab: Brd4BD2 L387A)” value stood at 94% and the “pDmax (%) (Ab:Brd2)” value turned out to be 96%.

The DC50 is the concentration giving 50% degradation. Consider `CCC(C(=O)NCCOCCOCCOCC(=O)N[C@H](C(=O)N1C[C@H](O)C[C@H]1C(=O)NCc1ccc(-c2scnc2C)cc1)C(C)(C)C)C1N=C(c2ccc(Cl)cc2)c2c(sc(C)c2C)-n2c(C)nnc21` (relative stereo) [ET-MZ1 (19), (2S,4R)-1-((2S,17R*)-2-(tert-Butyl)-17-((S*)-4-(4-chlorophenyl)-2,3,9-trimethyl-6H-thieno[3,2-f][1,2,4]triazolo[4,3-a][1,4]diazepin-6-yl)-4,16-dioxo-6,9,12-trioxa-3,15-diazanonadecanoyl)-4-hydroxy-N-(4-(4-methylthiazol-5-yl)benzyl)pyrrolidine-2-carboxamide], for which the “off-target degradation” value in experiment [1] is recorded as “no observable off-target degradation”. Besides, in the experiment on BromoTag-Brd2 (diastereomeric mixtures), the “pDC50 (Ab: Brd2)” value is on record as 6.5 ± 0.2, the “pDC50 (Ab: Brd4^BD2 L387A)” value is given as 6.6 ± 0.6 and the hook effect result was “no hook effect”. In the experiment on BromoTag-Brd2 (setting [3]), the half-maximal degradation concentration (DC50) fell in the range of 250 to 360 nM.

On to `Cc1ncsc1-c1ccc([C@H](C)NC(=O)[C@@H]2C[C@@H](O)CN2C(=O)[C@@H](NC(=O)COCCCOCCNC(=O)C(C)C2N=C(c3ccc(Cl)cc3)c3c(sc(C)c3C)-n3c(C)nnc32)C(C)(C)C)cc1` (relative stereo) [ME-ARV-771 (20), (2S,4R)-1-((2S,15R*)-2-(tert-Butyl)-15-((S*)-4-(4-chlorophenyl)-2,3,9-trimethyl-6H-thieno[3,2-f][1,2,4]triazolo[4,3-a][1,4]diazepin-6-yl)-4,14-dioxo-6,10-dioxa-3,13-diazahexadecanoyl)-4-hydroxy-N-((S)-1-(4-(4-methylthiazol-5-yl)phenyl)ethyl)pyrrolidine-2-carboxamide], for which, in experiment [1] (setting [2]), the “off-target degradation” value is on record as “induced undesired off-target degradation”. In the experiment on BromoTag-Brd2 (diastereomeric mixtures), the “Dmax (%) (Ab: Brd2)” value worked out at 60%, the “Dmax (%) (Ab: Brd4^BD2 L387A)” value is reported as 70%, the “pDC50 (Ab: Brd2)” value was 6.4 ± 0.6 and the “pDC50 (Ab: Brd4^BD2 L387A)” value is recorded as 6.5 ± 0.4. Moreover, in the experiment on BromoTag-Brd2, the “pDmax (%) (Ab: Brd4BD2 L387A)” value is recorded as 70% and the “pDmax (%) (Ab:Brd2)” value came to 60%.

Regarding `CCC(C(=O)NCCOCCCOCC(=O)N[C@H](C(=O)N1C[C@H](O)C[C@H]1C(=O)N[C@@H](C)c1ccc(-c2scnc2C)cc1)C(C)(C)C)C1N=C(c2ccc(Cl)cc2)c2c(sc(C)c2C)-n2c(C)nnc21` (relative stereo) [ET-ARV-771 (21), (2S,4R)-1-((2S,15R*)-2-(tert-Butyl)-15-((S*)-4-(4-chlorophenyl)-2,3,9-trimethyl-6H-thieno[3,2-f][1,2,4]triazolo[4,3-a][1,4]diazepin-6-yl)-4,14-dioxo-6,10-dioxa-3,13-diazaheptadecanoyl)-4-hydroxy-N-((S)-1-(4-(4-methylthiazol-5-yl)phenyl)ethyl)pyrrolidine-2-carboxamide], in the experiment with BromoTag-Brd2 (diastereomeric mixture), the DC50 is around 1000 nM. Moreover, in the experiment with BromoTag-Brd2 (diastereomeric mixtures), the “Dmax of BromoTag-Brd2 degradation” value was below 70%, the “Dmax (%) (Ab: Brd2)” value was found to be 51%, the “Dmax (%) (Ab: Brd4^BD2 L387A)” value turned out to be 69% and the “pDC50 (Ab: Brd2)” value is 5.7 ± 1.8. For the same compound, in the experiment with BromoTag-Brd2 (diastereomeric mixtures), the “pDC50 (Ab: Brd4^BD2 L387A)” value is listed as 6.1 ± 0.3 and the hook effect result was “strong hook effect”. For the same compound, in the experiment with BromoTag-Brd2, the “pDmax (%) (Ab: Brd4BD2 L387A)” value is on record as 69% and the “pDmax (%) (Ab:Brd2)” value was 51%.

With `CCC(C(=O)OCCOCCOCCOCC(=O)N[C@H](C(=O)N1C[C@H](O)C[C@H]1C(=O)NCc1ccc(-c2scnc2C)cc1)C(C)(C)C)C1N=C(c2ccc(Cl)cc2)c2c(sc(C)c2C)-n2c(C)nnc21` (relative stereo) [ET-OMZ1 (23), (S)-13-((2S,4R)-4-Hydroxy-2-((4-(4-methylthiazol-5-yl)benzyl)carbamoyl)pyrrolidine-1-carbonyl)-14,14-dimethyl-11-oxo-3,6,9-trioxa-12-azapentadecyl (R*)-2-((S*)-4-(4-chlorophenyl)-2,3,9-trimethyl-6H-thieno[3,2-f][1,2,4]triazolo[4,3-a][1,4]diazepin-6-yl)butanoate], the “off-target degradation” value in experiment [1] is reported as “no observable off-target degradation”. Besides, in the experiment on BromoTag-Brd2 (diastereomeric mixtures), the “Dmax of BromoTag-Brd2 degradation” value was above 75%, the “pDC50 (Ab: Brd2)” value turned out to be 7.9 ± 0.2, the “pDC50 (Ab: Brd4^BD2 L387A)” value is 7.1 and the hook effect result is given as “strong onset of the hook effect”. The half-maximal degradation concentration (DC50) with BromoTag-Brd2 (setting [3]) lay within 13 to 80 nM.

With `Cc1ncsc1-c1ccc(CNC(=O)[C@@H]2C[C@@H](O)CN2C(=O)[C@@H](NC(=O)COCCOCCOCCNC(=O)C(C)C2N=C(c3ccc(Cl)cc3)c3c(sc(C)c3C)-n3c(C)nnc32)C(C)(C)C)cc1` (relative stereo) [ME-MZ1 (18), (2S,4R)-1-((2S,17R*)-2-(tert-Butyl)-17-((S*)-4-(4-chlorophenyl)-2,3,9-trimethyl-6H-thieno[3,2-f][1,2,4]triazolo[4,3-a][1,4]diazepin-6-yl)-4,16-dioxo-6,9,12-trioxa-3,15-diazaoctadecanoyl)-4-hydroxy-N-(4-(4-methylthiazol-5-yl)benzyl)pyrrolidine-2-carboxamide], the “off-target degradation” value in experiment [1] (setting [2]) is reported as “induced undesired off-target degradation”. In the experiment with BromoTag-Brd2, the “pDmax (%) (Ab: Brd4BD2 L387A)” value came out at 90% and the “pDmax (%) (Ab:Brd2)” value is 92%.

With `CC[C@@H](C(=O)OCCOCCCOCC(=O)N[C@H](C(=O)N1C[C@H](O)C[C@H]1C(=O)N[C@@H](C)c1ccc(-c2scnc2C)cc1)C(C)(C)C)[C@@H]1N=C(c2ccc(Cl)cc2)c2c(sc(C)c2C)-n2c(C)nnc21` (relative stereo) [ET-OARV-771 (25), 2-(3-(2-(((S)-1-((2S,4R)-4-Hydroxy-2-(((S)-1-(4-(4-methylthiazol-5-yl)phenyl)ethyl)carbamoyl)pyrrolidin-1-yl)-3,3-dimethyl-1-oxobutan-2-yl)amino)-2-oxoethoxy)propoxy)ethyl (R*)-2-((S*)-4-(4-chlorophenyl)-2,3,9-trimethyl-6H-thieno[3,2-f][1,2,4]triazolo[4,3-a][1,4]diazepin-6-yl)butanoate], the “off-target degradation” value in experiment [1] is “minor off-target degradation of Brd3”. Also, in the experiment with BromoTag-Brd2 (diastereomeric mixtures), the “Dmax of BromoTag-Brd2 degradation” value was above 75% and the hook effect result is listed as “strong onset of the hook effect”. Besides, the 50% degradation concentration (DC50) with BromoTag-Brd2 (setting [3]) was in the range of 13 to 16 nM.
